# Reference: patent US11690839B2, “Treatment of idiopathic pulmonary fibrosis” (TAKEDA GMBH, priority 2017, dated 2023)
# Read-outs that look alike come from different tables or passages of the source.
# Legend:
# [1] = test system: IPF mice model (DTR+ mice given diphtheria toxin); assay type: in vivo
# [2] = test system: WI-38 human lung fibroblasts; assay: TGF-β induced mRNA expression of pro-fibrotic markers in WI-38 human lung fibroblast cell line; assay type: cell-based; settings: WI-38 cells, various concentrations of Compound A 1 hour before TGF-β (3 ng/mL) and forskolin (1 μM), 24 hours incubation, normalized to GAPDH; FIG. 2
# Procedure: 2) In Vitro Effects of PDE4 Inhibitor Compound A in […]
# For gene expression assay, WI-38 human lung fibroblasts were suspended in Eagle's minimum essential medium (E-MEM, Invitrogen) containing 10% heat-inactivated fetal bovine serum (FBS) and seeded on 24 well plates as 0.5×10^5 cells/500 μL/well. Twenty-four hours after the seeding, medium was re-placed by E-MEM containing 0.5% FBS. Twenty-four hours after medium change, cells were treated with various concentration of Compound A. After 1 hour, cells were treated with TGF-β (3 ng/mL) and forskolin (1 μM). After the 24-hours incubation, total RNA was ex-tracted from cell lysate using RNeasy 96 Kit (QIAGEN 74182). cDNA was amplified using High-Capacity cDNA Reverse Transcription Kit (ABI 4368813), and target gene mRNA was measured using TaqMan PCR with predesigned primers for type 1 collagen alpha 1 chain (Hs00164004_m1, Applied Biosystems), fibronectin (Hs00365052_m1, Applied Biosystems), connective tissue growth factor (Hs01026927_g1, Applied Biosystems), plasminogen activator inhibitor-1 (Hs00167155_m1, Applied Biosystems) and GAPDH (Hs02758991_g1, Applied Biosystems) as the endogenous reference. The target gene expression levels were normalized by mRNA expression of GAPDH and the data represent the relative mRNA levels to TGF-β/forskolin-treated group.
Compound,"body weight reduction by induction of epithelial cell injury ([1]; DT day 1-14, Compound A 0.3 or 3.0 mg/kg oral once daily day 11-21, FIG. 1B)","suppression of lung hydroxyproline content (severity of lung fibrosis) ([1]; DT day 1-14, Compound A oral gavage once daily day 11-21, already starting at 0.3 mg/kg (doses 0.3 and 3.0 mg/kg), assessed day 21, FIG. 1A)","mRNA expression of fibrotic marker genes (type 1 collagen alpha 1, fibronectin, connective tissue growth factor, plasminogen activator inhibitor-1) induced by TGF-β [2]","body weight reduction by induction of epithelial cell injury ([1]; DT day 1-14, imatinib 50 mg/kg intraperitoneal once daily day 11-21, FIG. 1B)","suppression of lung hydroxyproline content (severity of lung fibrosis) ([1]; DT day 1-14, imatinib 50 mg/kg intraperitoneal once daily day 11-21, assessed day 21, FIG. 1A)"
"CCOc1cc2c(cc1OC)C(c1ccc(=O)n(C)c1)=N[C@@H]1CC[C@@H](O)C[C@H]21 [Compound A, 5-((2R,4aR,10bR)-9-Ethoxy-2-hydroxy-8-methoxy-1,2,3,4,4a,10b-hexahydro-phenanthridin-6-yl)-1-methyl-1H-pyridin-2-one]",blunting effect was shown,robust and significant effect on suppression of hydroxyproline content,significantly suppressed expression of fibrotic marker genes induced by TGF-β,–,–
"Cc1ccc(NC(=O)c2ccc(CN3CCN(C)CC3)cc2)cc1Nc1nccc(-c2cccnc2)n1 [Imatinib, reference compound]",–,–,–,not blunted,only a moderate efficacy
